{
  "source": "paper PMC7559897",
  "about": "“Designed Antimicrobial Peptides Against Trauma-Related Cutaneous Invasive Fungal Wound Infections” (Journal of Fungi, 2020)",
  "key": {"A. baumannii 6043": {"tested_on": "A. baumannii 6043", "type": "cell-based, Acinetobacter baumannii", "conditions": "cation adjusted Mueller-Hinton broth, ~10^6 CFU/mL, 24 h, 37 °C, OD600 <0.1 in at least 3 of 4 wells, 2-128 μg/mL; shaded values previously reported ref 18", "method_in_brief": "(§1)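 Overnight TSB cultures (37 °C) diluted to approx. 10^6 CFU/mL, 2X CAMHB; fungal isolate in potato dextrose broth. dAMP 2-fold series 2–128 μg/mL, n=4. 24 h, 37 °C, A600; MIC: ≥3/4 wells OD <0.1.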"}, "A. baumannii 6838": {"tested_on": "A. baumannii 6838", "type": "cell-based, Acinetobacter baumannii", "conditions": "cation adjusted Mueller-Hinton broth, ~10^6 CFU/mL, 24 h, 37 °C, OD600 <0.1 in at least 3 of 4 wells, 2-128 μg/mL; shaded values previously reported ref 18", "method_in_brief": "as §1"}, "A. baumannii ATCC 17978": {"tested_on": "A. baumannii ATCC 17978", "type": "cell-based, Acinetobacter baumannii", "conditions": "cation adjusted Mueller-Hinton broth, ~10^6 CFU/mL, 24 h, 37 °C, OD600 <0.1 in at least 3 of 4 wells, 2-128 μg/mL; shaded values previously reported ref 18", "method_in_brief": "as §1"}, "E. cloacae 6053": {"tested_on": "E. cloacae 6053", "type": "cell-based", "conditions": "cation adjusted Mueller-Hinton broth, ~10^6 CFU/mL, 24 h, 37 °C, OD600 <0.1 in at least 3 of 4 wells, 2-128 μg/mL; shaded values previously reported ref 18", "method_in_brief": "as §1"}, "[1]": {"tested_on": "Mucor circinelloides NRRL 3631", "type": "cell-based", "conditions": "potato dextrose broth, 24 h, 37 °C, OD600 <0.1 in at least 3 of 4 wells, dose range 2 to 128 µg/mL; shaded values previously reported ref 17", "method_in_brief": "as §1"}, "[2]": {"tested_on": "Fusarium solani NRRL 28548", "type": "cell-based", "conditions": "potato dextrose broth, 24 h, 37 °C, OD600 <0.1 in at least 3 of 4 wells, dose range 2 to 128 µg/mL; shaded values previously reported ref 17", "method_in_brief": "as §1"}, "[3]": {"tested_on": "P. aeruginosa 19660 (Xen5 luciferase)", "assay": "Bioluminescent time-kill assay", "type": "cell-based, Pseudomonas aeruginosa", "conditions": "8 μg/mL; RP553 at 60 min; bioluminescence", "from_the_text": "(§2) Fungal and bacterial strains were obtained from American Type Culture Collection (ATCC, Manassas, VA, USA) or the clinical isolate collection at Trideum Biosciences (Frederick, MD, USA) and are presented in Table 1 and Table 2, respectively. Bioluminescence strains of P. aeruginosa 19660, transfected with the Xen5 luciferase gene, and S. aureus ATCC R 49525TM (Wright), transfected with the Xen36 luciferase gene, were obtained from Perkin Elmer (Waltham, MA, USA).\n(§3) Real-time killing of bacterial cells, P. aeruginosa or S. aureus, and mammalian cytotoxicity to assess dAMP off-target toxicity was evaluated using bioluminescent cells. The L929 fibroblast cells (ATCC, Manassas, VA, USA) were made bioluminescent by transfection with a luciferase gene. Cells (1 × 10^4 cells, 100 μL) were plated in 96-well black-walled plates and the candidate dAMPs were 2-fold serially diluted from specified concentrations in growth medium supplemented with 150 μg/mL D-luciferin. Each concentration was performed in triplicate, with the final volume being 200 μL. Imaging was performed at select times after the addition of the dAMP, and compared to concurrently run vehicle-control, using an IVIS Lumina imaging system (Caliper Life Sciences, Inc., Hopkinton, MA, USA). For imaging, the 96-well plate was positioned on the stage (12.5-cm field of view), with an open emission filter, binning of 4, and f-stop 1 and a 1-min exposure time. Monitoring bioluminescence allows assessment of the kinetics of cellular viability as there is a tight correlation between the bioluminescent signal and cell viability. Data analysis was performed using the Living Image software program (version 4.3, Caliper Life Sciences, Inc., Hopkinton, MA, USA).\n(§4) Figure 3 RP553, RP556, RP557 rapidly destroy P. aeruginosa and S. aureus. The bioluminescence of viable P. aeruginosa 19,660 and S. aureus 49,525 cells was quantitated in real time with an IVIS Lumina bioimaging system. Data represent the mean ± SE of triplicate replicates from two independent experiments. For some points, the error bars are shorter than the height of the symbols."}, "K. pneumonia 6069": {"tested_on": "K. pneumonia 6069", "type": "cell-based, Klebsiella pneumoniae", "conditions": "cation adjusted Mueller-Hinton broth, ~10^6 CFU/mL, 24 h, 37 °C, OD600 <0.1 in at least 3 of 4 wells, 2-128 μg/mL; shaded values previously reported ref 18", "method_in_brief": "as §1"}, "K. pneumonia ATCC 10031": {"tested_on": "K. pneumonia ATCC 10031", "type": "cell-based, Klebsiella pneumoniae", "conditions": "cation adjusted Mueller-Hinton broth, ~10^6 CFU/mL, 24 h, 37 °C, OD600 <0.1 in at least 3 of 4 wells, 2-128 μg/mL; shaded values previously reported ref 18", "method_in_brief": "as §1"}, "[4]": {"tested_on": "vulvovaginal candidiasis infection", "conditions": "cited from earlier work", "from_the_text": "The dAMPs RP504, RP554 and RP557 were thus tested for their ability to treat a rodent vulvovaginal candidiasis infection. […] A daily dose with a 2% concentration lowered the CFU/sample by more than 4 logs compared to the con ..."}, "S. aureus B-767": {"tested_on": "S. aureus B-767", "type": "cell-based, Staphylococcus aureus", "conditions": "cation adjusted Mueller-Hinton broth, ~10^6 CFU/mL, 24 h, 37 °C, OD600 <0.1 in at least 3 of 4 wells, 2-128 μg/mL; shaded values previously reported ref 18", "method_in_brief": "as §1"}, "S. aureus 6061": {"tested_on": "S. aureus 6061", "type": "cell-based, Staphylococcus aureus", "conditions": "cation adjusted Mueller-Hinton broth, ~10^6 CFU/mL, 24 h, 37 °C, OD600 <0.1 in at least 3 of 4 wells, 2-128 μg/mL; shaded values previously reported ref 18", "method_in_brief": "as §1"}, "MRSA 6313": {"tested_on": "MRSA 6313", "type": "cell-based, Staphylococcus aureus", "conditions": "cation adjusted Mueller-Hinton broth, ~10^6 CFU/mL, 24 h, 37 °C, OD600 <0.1 in at least 3 of 4 wells, 2-128 μg/mL; shaded values previously reported ref 18", "method_in_brief": "as §1"}, "MRSA 6381": {"tested_on": "MRSA 6381", "type": "cell-based, Staphylococcus aureus", "conditions": "cation adjusted Mueller-Hinton broth, ~10^6 CFU/mL, 24 h, 37 °C, OD600 <0.1 in at least 3 of 4 wells, 2-128 μg/mL; shaded values previously reported ref 18", "method_in_brief": "as §1"}, "MRSA ATCC 33592": {"tested_on": "MRSA ATCC 33592", "type": "cell-based, Staphylococcus aureus", "conditions": "cation adjusted Mueller-Hinton broth, ~10^6 CFU/mL, 24 h, 37 °C, OD600 <0.1 in at least 3 of 4 wells, 2-128 μg/mL; shaded values previously reported ref 18", "method_in_brief": "as §1"}, "[5]": {"tested_on": "S. aureus 49525 (Xen36 luciferase)", "type": "cell-based, Staphylococcus aureus", "conditions": "8 μg/mL, 60 min incubation, bioluminescence, triplicates from two independent experiments", "from_the_text": "as §2, §3, §4"}, "P. aeruginosa ATCC 19660": {"tested_on": "P. aeruginosa ATCC 19660", "type": "cell-based, Pseudomonas aeruginosa", "conditions": "cation adjusted Mueller-Hinton broth, ~10^6 CFU/mL, 24 h, 37 °C, OD600 <0.1 in at least 3 of 4 wells, 2-128 μg/mL; shaded values previously reported ref 18", "method_in_brief": "as §1"}, "P. aeruginosa ATCC 27853": {"tested_on": "P. aeruginosa ATCC 27853", "type": "cell-based, Pseudomonas aeruginosa", "conditions": "cation adjusted Mueller-Hinton broth, ~10^6 CFU/mL, 24 h, 37 °C, OD600 <0.1 in at least 3 of 4 wells, 2-128 μg/mL; shaded values previously reported ref 18", "method_in_brief": "as §1"}, "P. aeruginosa 6186": {"tested_on": "P. aeruginosa 6186", "type": "cell-based, Pseudomonas aeruginosa", "conditions": "cation adjusted Mueller-Hinton broth, ~10^6 CFU/mL, 24 h, 37 °C, OD600 <0.1 in at least 3 of 4 wells, 2-128 μg/mL; shaded values previously reported ref 18", "method_in_brief": "as §1"}, "[6]": {"tested_on": "preformed and mature MRSA biofilm", "conditions": "cited from earlier work", "from_the_text": "(§5) Early and empiric treatment is required due to the rapid emergence of both bacterial and fungal resistance and resilience due to biofilm formation multi-drug resistant organisms and their associated biofilms play a significant role in the pathogenicity and chronicity of wound infections. The resistance of bacteria and fungi residing in biofilms is due to the biofilm matrix acting as a fortified barrier and the presence of slow-growing microbes with poor metabolic activity, known as persisters. The dAMPs direct perturbation of cellular membranes is effective at eradicating biofilms. RP55 ..."}, "Candida biofilm": {"tested_on": "Candida biofilm", "conditions": "cited from earlier work", "from_the_text": "as §5"}},
  "note": "Bridge positions count the residues as written; N and C are the ends. Peptide text beside a SMILES is read from it.",
  "data": [
    {"smiles": "CC[C@H](C)[C@@H]1NC(=O)CNC(=O)[C@H](CCCCN)NC(=O)[C@H](Cc2ccc(O)cc2)NC(=O)[C@@H]2CSSC[C@H](NC1=O)C(=O)N[C@@H](Cc1ccccc1)C(=O)N[C@@H](CCCCN)C(=O)N[C@@H](CCCCN)C(=O)N[C@H](C(=O)N[C@@H](CCCCN)C(N)=O)CSSC[C@H](NC(=O)[C@H](Cc1ccccc1)NC(=O)[C@@H](N)CCCNC(=N)N)C(=O)N[C@@H](Cc1c[nH]c3ccccc13)C(=O)N[C@@H](CCCCN)C(=O)N[C@@H](C(C)C)C(=O)N2", "note": "[RP557] (H-RFCWKVCYKGICFKKCK-NH2; disulfide 3-16, 7-12)", "values": [
      {"measurement": "MIC against A. baumannii 6043", "setting": "A. baumannii 6043", "value": 8, "unit": "µg/mL"},
      {"measurement": "MIC against A. baumannii 6838", "setting": "A. baumannii 6838", "value": 8, "unit": "µg/mL"},
      {"measurement": "MIC against A. baumannii ATCC 17978", "setting": "A. baumannii ATCC 17978", "value": 16, "unit": "µg/mL"},
      {"measurement": "MIC against E. cloacae 6053", "setting": "E. cloacae 6053", "value": 8, "unit": "µg/mL"},
      {"measurement": "MIC against Mucor circinelloides NRRL 3631", "setting": "[1]", "value": 64, "unit": "µg/mL"},
      {"measurement": "MIC against Fusarium solani NRRL 28548", "setting": "[2]", "value": 2, "unit": "µg/mL"},
      {"measurement": "P. aeruginosa killing (in words)", "setting": "[3]", "value": "immediate eradication"},
      {"measurement": "MIC against K. pneumonia 6069", "setting": "K. pneumonia 6069", "value": 4, "unit": "µg/mL"},
      {"measurement": "MIC against K. pneumonia ATCC 10031", "setting": "K. pneumonia ATCC 10031", "value": 8, "unit": "µg/mL"},
      {"measurement": "lowering of CFU/sample compared to control samples", "setting": "[4]; daily dose with a 2% concentration, dose-response protocol", "value": "more than 4 logs"},
      {"measurement": "reduction of CFU/tissue sample", "setting": "[4]; rodent vulvovaginal candidiasis, after three days of daily treatment", "value": "≥ 2.5", "unit": "logs"},
      {"measurement": "MIC against S. aureus B-767", "setting": "S. aureus B-767", "value": 4, "unit": "µg/mL"},
      {"measurement": "MIC against S. aureus 6061", "setting": "S. aureus 6061", "value": 8, "unit": "µg/mL"},
      {"measurement": "MIC against MRSA 6313", "setting": "MRSA 6313", "value": 4, "unit": "µg/mL"},
      {"measurement": "MIC against MRSA 6381", "setting": "MRSA 6381", "value": 4, "unit": "µg/mL"},
      {"measurement": "MIC against MRSA ATCC 33592", "setting": "MRSA ATCC 33592", "value": 4, "unit": "µg/mL"},
      {"measurement": "S. aureus killing", "setting": "[5]", "value": 70, "unit": "%"},
      {"measurement": "MIC against P. aeruginosa ATCC 19660", "setting": "P. aeruginosa ATCC 19660", "value": 4, "unit": "µg/mL"},
      {"measurement": "MIC against P. aeruginosa ATCC 27853", "setting": "P. aeruginosa ATCC 27853", "value": 4, "unit": "µg/mL"},
      {"measurement": "MIC against P. aeruginosa 6186", "setting": "P. aeruginosa 6186", "value": 4, "unit": "µg/mL"},
      {"measurement": "disruption of preformed and mature MRSA biofilm", "setting": "[6]", "value": "completely disrupted"},
      {"measurement": "disruption of Candida biofilm", "setting": "Candida biofilm", "value": "completely disrupted"}
    ]}
  ]
}
